# Reference: patent US20250154109A1, “SODIUM CHANNEL BLOCKING COMPOUNDS, DERIVATIVES THEREOF, AND METHODS OF THEIR USE” (LATIGO BIOTHERAPEUTICS, INC, priority 2022, published 2025)
# Where two headings read alike, the source gives them in different places.
# Target: human Nav1.8 (Homo sapiens, UniProt Q9Y5Y9)
# Test: SyncroPatch384PE assay (automated patch clamp)
# Type: cell-based
# Settings: human Nav1.8/b3 CHO cells
# [1] = inactivated state block (P2 measurement), read-out: P2 IC50
# [2] = resting state block (P1 measurement), read-out: P1 IC50
# human Nav1.8, sequence (Q9Y5Y9 whole entry): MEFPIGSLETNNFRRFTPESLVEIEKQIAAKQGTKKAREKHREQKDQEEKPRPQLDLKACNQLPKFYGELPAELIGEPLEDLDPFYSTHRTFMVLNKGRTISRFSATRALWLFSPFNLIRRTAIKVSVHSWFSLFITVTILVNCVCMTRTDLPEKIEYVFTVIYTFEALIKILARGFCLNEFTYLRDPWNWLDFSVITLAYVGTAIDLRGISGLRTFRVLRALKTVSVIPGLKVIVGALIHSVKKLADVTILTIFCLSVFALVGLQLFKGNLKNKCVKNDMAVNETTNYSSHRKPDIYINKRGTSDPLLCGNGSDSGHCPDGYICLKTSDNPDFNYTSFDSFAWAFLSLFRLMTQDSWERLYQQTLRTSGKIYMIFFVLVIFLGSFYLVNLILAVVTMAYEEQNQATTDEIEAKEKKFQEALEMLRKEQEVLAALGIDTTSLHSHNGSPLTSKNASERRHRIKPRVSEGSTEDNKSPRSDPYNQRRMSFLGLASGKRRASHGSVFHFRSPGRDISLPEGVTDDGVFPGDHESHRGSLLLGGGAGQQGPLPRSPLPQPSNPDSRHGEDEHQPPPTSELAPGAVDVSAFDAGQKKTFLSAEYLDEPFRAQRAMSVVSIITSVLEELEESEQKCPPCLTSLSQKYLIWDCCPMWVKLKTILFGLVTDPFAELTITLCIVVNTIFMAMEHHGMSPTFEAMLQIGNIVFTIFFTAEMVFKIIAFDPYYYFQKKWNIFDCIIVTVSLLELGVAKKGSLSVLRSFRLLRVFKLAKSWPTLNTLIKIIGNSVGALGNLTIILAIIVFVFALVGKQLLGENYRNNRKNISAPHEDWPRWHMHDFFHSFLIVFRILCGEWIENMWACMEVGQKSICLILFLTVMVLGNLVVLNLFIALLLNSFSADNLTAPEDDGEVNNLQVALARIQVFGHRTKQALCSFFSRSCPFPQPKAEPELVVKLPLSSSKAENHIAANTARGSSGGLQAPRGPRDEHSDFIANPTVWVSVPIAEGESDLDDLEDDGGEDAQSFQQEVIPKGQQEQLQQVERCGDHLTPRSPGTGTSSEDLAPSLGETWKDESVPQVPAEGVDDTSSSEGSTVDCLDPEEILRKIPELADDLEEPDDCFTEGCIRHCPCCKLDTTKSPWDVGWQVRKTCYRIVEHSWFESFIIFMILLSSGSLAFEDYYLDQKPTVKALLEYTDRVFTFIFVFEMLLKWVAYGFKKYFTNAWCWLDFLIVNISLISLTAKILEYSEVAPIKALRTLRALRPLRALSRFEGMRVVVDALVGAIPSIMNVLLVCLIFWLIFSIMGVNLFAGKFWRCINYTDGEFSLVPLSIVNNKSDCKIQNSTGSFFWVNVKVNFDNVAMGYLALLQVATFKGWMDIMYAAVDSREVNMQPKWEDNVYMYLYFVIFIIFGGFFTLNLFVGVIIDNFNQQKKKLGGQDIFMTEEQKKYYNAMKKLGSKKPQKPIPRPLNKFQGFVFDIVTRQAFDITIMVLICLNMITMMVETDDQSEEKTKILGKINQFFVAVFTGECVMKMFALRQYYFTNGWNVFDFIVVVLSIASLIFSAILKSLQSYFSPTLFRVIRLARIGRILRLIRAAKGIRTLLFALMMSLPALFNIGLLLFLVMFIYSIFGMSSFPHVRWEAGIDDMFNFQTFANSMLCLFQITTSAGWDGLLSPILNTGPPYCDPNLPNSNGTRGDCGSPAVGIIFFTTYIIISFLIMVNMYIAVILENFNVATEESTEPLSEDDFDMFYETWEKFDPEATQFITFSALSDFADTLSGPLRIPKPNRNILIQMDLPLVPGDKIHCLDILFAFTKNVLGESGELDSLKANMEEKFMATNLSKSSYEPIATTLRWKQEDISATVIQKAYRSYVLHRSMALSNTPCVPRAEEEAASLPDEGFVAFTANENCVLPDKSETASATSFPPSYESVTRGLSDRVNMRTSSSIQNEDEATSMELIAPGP
SMILES,IC50 [1],IC50 [2]
"Cc1nc(-c2cnn(C)c2)nc(N2CCCC(F)(F)CC2)c1C(=O)Nc1cccc([S@](C)(=N)=O)c1 [Example 150, (R)-4-(4,4-difluoroazepan-1-yl)-6-methyl-2-(1-methyl-1H-pyrazol-4-yl)-N-(3-(S-methylsulfonimidoyl)phenyl)pyrimidine-5-carboxamide]",100 to 200 nM,100 to 200 nM
"Cc1cc(-c2cnn(C)c2)nc(N2CCCC(F)(F)CC2)c1C(=O)Nc1cccc([S@](C)(=N)=O)c1 [Example 151, (R)-2-(4,4-difluoroazepan-1-yl)-4-methyl-6-(1-methyl-1H-pyrazol-4-yl)-N-(3-(S-methylsulfonimidoyl)phenyl)nicotinamide]",100 to 200 nM,100 to 200 nM
"Cc1n[nH]c(C)c1-c1cnc(N2CCCC(F)(F)CC2)c(C(=O)Nc2cccc([S@](C)(=N)=O)c2)c1C [Example 152, (R)-2-(4,4-difluoroazepan-1-yl)-5-(3,5-dimethyl-1H-pyrazol-4-yl)-4-methyl-N-(3-(S-methylsulfonimidoyl)phenyl)nicotinamide]",> 200 nM,> 200 nM
"Cc1cc(C(N)=O)nc(N2CCCC(F)(F)CC2)c1C(=O)Nc1cccc([S@](C)(=N)=O)c1 [Example 153, (R)-6-(4,4-difluoroazepan-1-yl)-4-methyl-N5-(3-(S-methylsulfonimidoyl)phenyl)pyridine-2,5-dicarboxamide]",> 200 nM,> 200 nM
"Cc1c(-c2ccc(C#N)cc2)nnc(N2CCCC(F)(F)CC2)c1C(=O)Nc1cccc([S@](C)(=N)=O)c1 [Example 154, (R)-6-(4-cyanophenyl)-3-(4,4-difluoroazepan-1-yl)-5-methyl-N-(3-(S-methylsulfonimidoyl)phenyl)pyridazine-4-carboxamide]",50 to 100 nM,50 to 100 nM
"Cc1nc(N2CCOCC2)nc(N2CCCC(F)(F)CC2)c1C(=O)Nc1cccc([S@](C)(=N)=O)c1 [Example 155, (R)-4-(4,4-difluoroazepan-1-yl)-6-methyl-N-(3-(S-methylsulfonimidoyl)phenyl)-2-morpholinopyrimidine-5-carboxamide]",> 200 nM,> 200 nM
"Cc1noc(C)c1-c1cnc(N2CCCC(F)(F)CC2)c(C(=O)Nc2cccc([S@](C)(=N)=O)c2)c1C [Example 156, (R)-2-(4,4-difluoroazepan-1-yl)-5-(3,5-dimethylisoxazol-4-yl)-4-methyl-N-(3-(S-methylsulfonimidoyl)phenyl)nicotinamide]",> 200 nM,> 200 nM
"Cc1nc(N2CCN(C)CC2)nc(N2CCCC(F)(F)CC2)c1C(=O)Nc1cccc([S@](C)(=N)=O)c1 [Example 157, (R)-4-(4,4-difluoroazepan-1-yl)-6-methyl-2-(4-methylpiperazin-1-yl)-N-(3-(S-methylsulfonimidoyl)phenyl)pyrimidine-5-carboxamide]",> 200 nM,> 200 nM
"Cc1nc(N2CC(F)(F)C2)nc(N2CCCC(F)(F)CC2)c1C(=O)Nc1cccc([S@](C)(=N)=O)c1 [Example 158, (R)-4-(4,4-difluoroazepan-1-yl)-2-(3,3-difluoroazetidin-1-yl)-6-methyl-N-(3-(S-methylsulfonimidoyl)phenyl)pyrimidine-5-carboxamide]",50 to 100 nM,50 to 100 nM
"Cc1c(-c2cnn(C(F)F)c2)cnc(N2CCCC(F)(F)CC2)c1C(=O)Nc1cccc([S@](C)(=N)=O)c1 [Example 159, (R)-2-(4,4-difluoroazepan-1-yl)-5-(1-(difluoromethyl)-1H-pyrazol-4-yl)-4-methyl-N-(3-(S-methylsulfonimidoyl)phenyl)nicotinamide]",5 to 50 nM,5 to 50 nM
"Cc1c(-c2cnn(C(C)C)c2)cnc(N2CCCC(F)(F)CC2)c1C(=O)Nc1cccc([S@](C)(=N)=O)c1 [Example 160, (R)-2-(4,4-difluoroazepan-1-yl)-5-(1-isopropyl-1H-pyrazol-4-yl)-4-methyl-N-(3-(S-methylsulfonimidoyl)phenyl)nicotinamide]",5 to 50 nM,5 to 50 nM
"Cc1nc(N2CCNCC2)nc(N2CCCC(F)(F)CC2)c1C(=O)Nc1cccc([S@](C)(=N)=O)c1 [Example 161, (R)-4-(4,4-difluoroazepan-1-yl)-6-methyl-N-(3-(S-methylsulfonimidoyl)phenyl)-2-(piperazin-1-yl)pyrimidine-5-carboxamide]",> 200 nM,> 200 nM
"Cc1c(Cl)c(-c2cnn(C)c2)nc(N2CCCC(F)(F)CC2)c1C(=O)Nc1cccc([S@](C)(=N)=O)c1 [Example 162, (R)-5-chloro-2-(4,4-difluoroazepan-1-yl)-4-methyl-6-(1-methyl-1H-pyrazol-4-yl)-N-(3-(S-methylsulfonimidoyl)phenyl)nicotinamide]",≤ 5 nM,≤ 5 nM

# Further lines, results first:
IC50 [1],IC50 [2],SMILES
≤ 5 nM,≤ 5 nM,"Cc1c(C(F)(F)F)cnc(N2CCCC(F)(F)CC2)c1C(=O)Nc1cccc([S@@](C)(=N)=O)c1 [Example 163, (S)-2-(4,4-difluoroazepan-1-yl)-4-methyl-N-(3-(S-methylsulfonimidoyl)phenyl)-5-(trifluoromethyl)nicotinamide]"
≤ 5 nM,≤ 5 nM,"Cc1c(C(F)(F)F)cnc(N2CCCC(F)(F)CC2)c1C(=O)Nc1cccc([S@](C)(=N)=O)c1 [Example 164, (R)-2-(4,4-difluoroazepan-1-yl)-4-methyl-N-(3-(S-methylsulfonimidoyl)phenyl)-5-(trifluoromethyl)nicotinamide]"
5 to 50 nM,5 to 50 nM,"Cc1c(-c2cnn(C)c2)cnc(N2CCCC(F)(F)CC2)c1C(=O)Nc1cccc(S(=N)(N)=O)c1 (centres unmarked) [Example 165, 2-(4,4-difluoroazepan-1-yl)-4-methyl-5-(1-methyl-1H-pyrazol-4-yl)-N-(3-sulfamidimidoylphenyl)nicotinamide]"
≤ 5 nM,≤ 5 nM,"Cc1c(-c2ccc(Cl)c(F)c2)cnc(N2CCCC(F)(F)CC2)c1C(=O)Nc1cccc([S@](C)(=N)=O)c1 [Example 166, (R)-5-(4-chloro-3-fluorophenyl)-2-(4,4-difluoroazepan-1-yl)-4-methyl-N-(3-(S-methylsulfonimidoyl)phenyl)nicotinamide]"
5 to 50 nM,5 to 50 nM,"Cc1c(-c2ccc(C(F)F)cc2)nnc(N2CCCC(F)(F)CC2)c1C(=O)Nc1cccc([S@](C)(=N)=O)c1 [Example 167, (R)-3-(4,4-difluoroazepan-1-yl)-6-(4-(difluoromethyl)phenyl)-5-methyl-N-(3-(S-methylsulfonimidoyl)phenyl)pyridazine-4-carboxamide]"
5 to 50 nM,5 to 50 nM,"Cc1c(F)cnc(N2CCCC(F)(F)CC2)c1C(=O)Nc1cccc([S@](C)(=N)=O)c1 [Example 168, (R)-2-(4,4-difluoroazepan-1-yl)-5-fluoro-4-methyl-N-(3-(S-methylsulfonimidoyl)phenyl)nicotinamide]"
≤ 5 nM,≤ 5 nM,"Cc1c(-c2ccc(C(F)(F)F)cc2)cnc(N2CCCC(F)(F)CC2)c1C(=O)Nc1cccc([S@](C)(=N)=O)c1 [Example 169, (R)-2-(4,4-difluoroazepan-1-yl)-4-methyl-N-(3-(S-methylsulfonimidoyl)phenyl)-5-(4-(trifluoromethyl)phenyl)nicotinamide]"
5 to 50 nM,5 to 50 nM,"Cc1c(C#N)c(C#N)nc(N2CCCC(F)(F)CC2)c1C(=O)Nc1cccc([S@](C)(=N)=O)c1 [Example 170, (R)-5,6-dicyano-2-(4,4-difluoroazepan-1-yl)-4-methyl-N-(3-(S-methylsulfonimidoyl)phenyl)nicotinamide]"
≤ 5 nM,≤ 5 nM,"Cc1c(Cl)c(C#N)nc(N2CCCC(F)(F)CC2)c1C(=O)Nc1cccc([S@](C)(=N)=O)c1 [Example 171, (R)-5-chloro-6-cyano-2-(4,4-difluoroazepan-1-yl)-4-methyl-N-(3-(S-methylsulfonimidoyl)phenyl)nicotinamide]"
≤ 5 nM,≤ 5 nM,"Cc1nc(N2CCCC(F)(F)CC2)c(C(=O)Nc2cccc([S@](C)(=N)=O)c2)c(C)c1Br [Example 172, (R)-5-bromo-2-(4,4-difluoroazepan-1-yl)-4,6-dimethyl-N-(3-(S-methylsulfonimidoyl)phenyl)nicotinamide]"
100 to 200 nM,> 200 nM,"Cc1c(C2CNC2)cnc(N2CCCC(F)(F)CC2)c1C(=O)Nc1cccc(S(C)(=N)=O)c1 (centres unmarked) [Example 173, 5-(azetidin-3-yl)-2-(4,4-difluoroazepan-1-yl)-4-methyl-N-(3-(S-methylsulfonimidoyl)phenyl)nicotinamide]"
5 to 50 nM,5 to 50 nM,"Cc1c(-c2cnn(C)c2)cnc(N2CCCC(F)(F)CC2)c1C(=O)Nc1cccc([S@@](C)(=O)=NC(=O)C(N)C(F)(F)F)c1 (stereo partly drawn) [Example 174, N-(3-((R)-N-(2-amino-3,3,3-trifluoropropanoyl)-S-methylsulfonimidoyl)phenyl)-2-(4,4-difluoroazepan-1-yl)-4-methyl-5-(1-methyl-1H-pyrazol-4-yl)nicotinamide]"
5 to 50 nM,5 to 50 nM,"CNCC(=O)N=[S@](C)(=O)c1cccc(NC(=O)c2c(N3CCCC(F)(F)CC3)ccc(-c3cnn(C)c3)c2C)c1 [Example 175, (R)-6-(4,4-difluoroazepan-1-yl)-2-methyl-3-(1-methyl-1H-pyrazol-4-yl)-N-(3-(S-methyl-N-(methylglycyl)sulfonimidoyl)phenyl)benzamide]"
≤ 5 nM,≤ 5 nM,"Cc1c(-c2cnn(C(F)(F)F)c2)cnc(N2CCCC(F)(F)CC2)c1C(=O)Nc1cccc([S@](C)(=N)=O)c1 [Example 176, (R)-2-(4,4-difluoroazepan-1-yl)-4-methyl-N-(3-(S-methylsulfonimidoyl)phenyl)-5-(1-(trifluoromethyl)-1H-pyrazol-4-yl)nicotinamide]"
≤ 5 nM,≤ 5 nM,"Cc1c(C(F)(F)F)nnc(N2CCCC(F)(F)CC2)c1C(=O)Nc1cccc([S@@](C)(=O)=NC(=O)CN)c1 [Example 177, (R)-3-(4,4-difluoroazepan-1-yl)-N-(3-(N-glycyl-S-methylsulfonimidoyl)phenyl)-5-methyl-6-(trifluoromethyl)pyridazine-4-carboxamide]"
